Experimental data from patent publication US20020169193A1, “Alkylphenyliminoimidazolidine derivatives for treating urinary incontinence” (priority 2001, published 2002).

Key:
[1] = tested on: HLM; assay: Metabolism: decomposition under the effect of HLM; format: in vitro ADME
Description: The decomposition under the effect of the enzyme HLM/60 minutes was tested analogously.

[2] = molecular target: CYP2D6 (Homo sapiens, UniProt P10635); assay: Metabolism: substrate breakdown by enzyme CYP2D6; format: in vitro ADME
Chain of CYP2D6 (P10635 whole entry): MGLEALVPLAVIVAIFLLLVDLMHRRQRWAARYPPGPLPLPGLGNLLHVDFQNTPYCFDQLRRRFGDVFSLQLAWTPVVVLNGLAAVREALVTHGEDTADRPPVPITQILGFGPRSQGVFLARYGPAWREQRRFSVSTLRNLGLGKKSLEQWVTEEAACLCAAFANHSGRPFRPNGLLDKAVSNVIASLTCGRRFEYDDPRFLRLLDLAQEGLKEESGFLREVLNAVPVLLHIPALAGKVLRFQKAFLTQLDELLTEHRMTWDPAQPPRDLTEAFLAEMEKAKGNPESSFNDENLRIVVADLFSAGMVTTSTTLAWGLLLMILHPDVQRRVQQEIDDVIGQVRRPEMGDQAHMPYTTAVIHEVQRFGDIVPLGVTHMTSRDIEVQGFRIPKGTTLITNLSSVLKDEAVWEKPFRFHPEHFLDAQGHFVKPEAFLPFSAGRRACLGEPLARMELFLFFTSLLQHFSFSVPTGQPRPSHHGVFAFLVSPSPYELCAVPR
Description: To determine the metabolism the enzyme CYP2D6 was allowed to act on the test substances. After 30 minutes, a check was made to see how much of the test substance put in had been degraded by the enzyme.

[3] = tested on: dog's femoral artery / carotid artery in the dog; assay: Selectivity in the dog: femoral artery versus carotid artery contraction; details: percentage contraction of femoral artery at 10^−5 M — percentage contraction of carotid artery at 10^−5 M
Description: (§1) The efficacy and selectivity of the compounds is determined as follows:
(§2) Maximum contraction in the dog and activity on human urethra are percentages of contraction compared with noradrenaline. Selectivity in the dog is the percentage contraction of the dog's femoral artery at 10^−5 M—percentage contraction of the carotid artery in the dog at 10^−5 M.

[4] = tested on: the Dog; assay: Efficacy: maximum contraction in the dog compared with noradrenaline; details: percentage of contraction compared with noradrenaline
Description: as §1, §2

[5] = tested on: Human Urethra; assay: Efficacy: contraction of human urethra compared with noradrenaline; details: percentage of contraction compared with noradrenaline
Description: as §1, §2

[6] = Bioavailability, oral versus intravenous administration in rats, plasma HPLC; format: in vivo; details: male fasted rats, oral vs intravenous, pooled plasma; for bioavailability: rat
Description: To determine the bioavailability, the test substances were administered orally to a group of 8 male fasted rats. As a control, animals in an identical second group were given the test substances intravenously. At specified times after administration (10 minutes, 30 minutes, 1 hour, 2 hours and 4 hours, and additionally 6 hours in the case of the animals in the oral group) 1 mL blood samples were taken from the animals in both groups. The blood samples taken in each group were mixed together (8 mL). The content of the corresponding test substances in the blood for the appropriate time was determined from the plasma after further working up by HPLC (High Performance Liquid Chromatography) using standard methods and correlated for the two groups.

| SMILES | % Substrate Breakdown After 60 Minutes Incubation with HLM [1] | % Substrate Breakdown After 30 Minutes Incubation with CYP2D6 [2] | Selectivity in the Dog [3] | Activity in the Dog [4] | Activity on Human Urethra [5] | bioavailability [6] | Bioavailability in % [6] |
| --- | --- | --- | --- | --- | --- | --- | --- |
| Cc1c(NC2=NCCN2)ccc(Cl)c1C(C)C [Compound 4, 4′-chloro-3′-isopropyl-2′-methylphen-1′-yl-2-iminoimidazolidine] | 5.5% | 7.6% | 0.5 | 59% |  |  |  |
| Cc1c(C(C)C)ccc(Cl)c1NC1=NCCN1 [Compound 3, 6′-chloro-3′-isopropyl-2′-methylphen-1′-yl-2-iminoimidazolidine] | 11.7% | 6.1% | 0.7 | 70% | 41% | 8% |  |
| Cc1c(NC2=NCCN2)ccc(Br)c1C(C)C [Compound 7, 4′-bromo-3′-isopropyl-2′-methylphen-1′-yl-2-iminoimidazolidine] |  | 5.0% | 0.7 | 70% | 21% | 53% |  |
| Cc1c(C(C)C)ccc(Br)c1NC1=NCCN1 [Compound 5, 6′-bromo-3′-isopropyl-2′-methylphen-1′-yl-2-iminoimidazolidine] | 7.5% | 8.7% | 0.4 | 34% |  |  |  |
| CC(C)(C)c1ccc(Br)c(N=C2NCCN2)c1 [Compound 6, 6′-bromo-3′-tert-butylphen-1′-yl-2-iminoimidazolidine] | 2.8% | 3.0% |  | 28% |  |  |  |
| COc1ccc(C(C)(C)C)cc1N=C1NCCN1 [Compound 2, 3′-tert-butyl-6′-methoxyphen-1′-yl-2-iminoimidazolidine] | 2.7% | 0.7% | 0.6 | 71% | 30% |  | 34% |
| Cc1c(NC2=NCCN2)cccc1C(C)C [Compound 1, 3′-isopropyl-2′-methylphen-1′-yl-2-iminoimidazolidine] | 13.5% | 18.2% | 0.7 | 78% | 11% |  |  |
